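96-well plates; 48 h exposure; 5 concentrations. Endpoints by linear interpolation between flanking doses. Not reached: highest tested concentration assigned. Abbreviation: GI50, concentration required for 50% inhibition of growth. At the TGI there is no net growth.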
Assays:
Test in all cases: NCI-60 cell line screen, 48 h
HCT-15 colon = system: HCT-15 colon
RPMI-8226 leukemia = system: RPMI-8226 leukemia
T-47D breast = system: T-47D breast
NCI/ADR-RES ovarian = system: NCI/ADR-RES ovarian
SK-MEL-2 melanoma = system: SK-MEL-2 melanoma
BT-549 breast = system: BT-549 breast
SW-620 colon = system: SW-620 colon
MDA-MB-231 breast = system: MDA-MB-231 breast
CAKI-1 renal = system: CAKI-1 renal
KM12 colon = system: KM12 colon
K-562 leukemia = system: K-562 leukemia
LOX IMVI melanoma = system: LOX IMVI melanoma
EKVX NSCLC = system: EKVX NSCLC
OVCAR-8 ovarian = system: OVCAR-8 ovarian
HS 578T breast = system: HS 578T breast
HCT-116 colon = system: HCT-116 colon
NCI-H460 lung = system: NCI-H460 lung
NCI-H23 lung = system: NCI-H23 lung
HOP-62 NSCLC = system: HOP-62 NSCLC
HOP-92 NSCLC = system: HOP-92 NSCLC
SF-295 CNS = system: SF-295 CNS
PC-3 prostate = system: PC-3 prostate
SNB-19 CNS = system: SNB-19 CNS
DU-145 prostate = system: DU-145 prostate
MOLT-4 leukemia = system: MOLT-4 leukemia
MDA-MB-435 = system: MDA-MB-435
786-0 renal = system: 786-0 renal
SN12C renal = system: SN12C renal
SF-268 CNS = system: SF-268 CNS
OVCAR-3 ovarian = system: OVCAR-3 ovarian
HCC-2998 colon = system: HCC-2998 colon
ACHN renal = system: ACHN renal
UACC-257 melanoma = system: UACC-257 melanoma
CCRF-CEM leukemia = system: CCRF-CEM leukemia
MCF7 breast = system: MCF7 breast
SK-OV-3 ovarian = system: SK-OV-3 ovarian
A549 NSCLC = system: A549 NSCLC
SK-MEL-5 melanoma = system: SK-MEL-5 melanoma
U251 CNS = system: U251 CNS
SF-539 CNS = system: SF-539 CNS
M14 melanoma = system: M14 melanoma
NCI-H522 lung = system: NCI-H522 lung
UO-31 renal = system: UO-31 renal
UACC-62 melanoma = system: UACC-62 melanoma

## O=C1c2cc(Br)ccc2-c2c1c1ccccc1c(=O)n2CCCCl
HCT-15 colon
  GI50: 26.8 µM
  TGI: > 100 µM
RPMI-8226 leukemia
  GI50: 41.6 µM
  TGI: > 100 µM
T-47D breast
  GI50: > 100 µM
  TGI: > 100 µM
NCI/ADR-RES ovarian
  GI50: 15.2 µM
  TGI: 60.1 µM
SK-MEL-2 melanoma
  GI50: 76.8 µM
  TGI: > 100 µM
BT-549 breast
  GI50: 44.5 µM
  TGI: > 100 µM
SW-620 colon
  GI50: 40.9 µM
  TGI: > 100 µM
MDA-MB-231 breast
  GI50: 13.1 µM
  TGI: 37.1 µM
CAKI-1 renal
  GI50: 2.84 µM
  TGI: 20.6 µM
KM12 colon
  GI50: 16.6 µM
  TGI: > 100 µM
K-562 leukemia
  GI50: 34.8 µM
  TGI: > 100 µM
LOX IMVI melanoma
  GI50: 8.56 µM
  TGI: 61.3 µM
EKVX NSCLC
  GI50: 94.3 µM
  TGI: > 100 µM
OVCAR-8 ovarian
  GI50: 15.9 µM
  TGI: 65.8 µM
HS 578T breast
  GI50: 27.4 µM
  TGI: 90.7 µM
HCT-116 colon
  GI50: 3.05 µM
  TGI: 17.1 µM
NCI-H460 lung
  GI50: 7.54 µM
  TGI: > 100 µM
NCI-H23 lung
  GI50: 13 µM
  TGI: 40.9 µM
HOP-62 NSCLC
  GI50: 3.34 µM
  TGI: 17.8 µM
HOP-92 NSCLC
  GI50: 12.7 µM
  TGI: 46.2 µM
SF-295 CNS
  GI50: 4.29 µM
  TGI: 21.4 µM
PC-3 prostate
  GI50: 18.3 µM
  TGI: > 100 µM
SNB-19 CNS
  GI50: 72.2 µM
  TGI: > 100 µM
DU-145 prostate
  GI50: 64.7 µM
  TGI: > 100 µM
MOLT-4 leukemia
  GI50: 3.07 µM
  TGI: 8.6 µM
MDA-MB-435
  GI50: 29.4 µM
  TGI: > 100 µM
786-0 renal
  GI50: 7.95 µM
  TGI: 26.2 µM
SN12C renal
  GI50: 14.1 µM
  TGI: 55.9 µM
SF-268 CNS
  GI50: 41.2 µM
  TGI: > 100 µM
OVCAR-3 ovarian
  GI50: 0.964 µM
  TGI: 7.91 µM
HCC-2998 colon
  GI50: 14.1 µM
  TGI: 71.5 µM
ACHN renal
  GI50: 9.19 µM
  TGI: 30.8 µM
UACC-257 melanoma
  GI50: 17.7 µM
  TGI: 95.7 µM
CCRF-CEM leukemia
  GI50: 8.51 µM
  TGI: > 100 µM
MCF7 breast
  GI50: 1.61 µM
  TGI: > 100 µM
SK-OV-3 ovarian
  GI50: 29.3 µM
  TGI: > 100 µM
A549 NSCLC
  GI50: 3.99 µM
  TGI: 36.3 µM
SK-MEL-5 melanoma
  GI50: 14.4 µM
  TGI: 77.7 µM
U251 CNS
  GI50: 13.5 µM
  TGI: 36.7 µM
SF-539 CNS
  GI50: 25.1 µM
  TGI: 68.5 µM
M14 melanoma
  GI50: 13.2 µM
  TGI: > 100 µM
NCI-H522 lung
  GI50: 39.8 µM
  TGI: > 100 µM
UO-31 renal
  GI50: 41 µM
  TGI: > 100 µM
UACC-62 melanoma
  GI50: 5.65 µM
  TGI: 22.3 µM
